Reference: patent US20020042423A1, “METHODS FOR IDENTIFYING COMPOUNDS THAT BIND TO HLA MOLECULES AND USE OF SUCH COMPOUNDS AS HLA-AGONISTS OR ANTAGONISTS” (priority 1998, published 2002)
Entries after “also recorded” stand apart in the source; their conditions may differ.

Columns and labels:
HLA-DR1301 [1] = biological target: T1, HLA-DR1301 (Homo sapiens, UniProt P01903+P01911, A100E/A169T/K41T/L162R/M171V/P40S/Q125H/Q178H/Q39Y/Q99D/R42S/S66N/T262R/W38E/Y61H); assay: IL-2 secretion functional blocking assay, DR1301-restricted TCR transfectants with MBP 152-165; type: cell-based; details: for inhibition of IL-2 secretion / blocking of antigen presentation by DR-1301: DR1301 and TCR transfectants, MBP peptide, IL-2 in supernatant by ELISA; for specificity for DR-1301 as compared with DR-1501, by inhibitory effect on IL-2 secretion: DR1301- versus DR1501-restricted TCR transfectants
T1 construct: expressed in transfected cells; host or cells: DAP.3 murine fibroblasts (gift of C. Hurley and R. Rosen-Bronson)
Excerpt: The murine T-cell hybridoma cell line BW58α-β- (a gift of […] and W. Born) was used for transfection of human TCRα and β cDNA isolated from patients with multiple sclerosis (Hastings, 1996). The parental DAP.3 murine fibroblast cell line was used for transfection of DR(α,β1*1301) or DR((α,β*1501) as previously described (a gift of C. Hurley and R. Rosen-Bronson)) ([Hurley, 1995), [Posch, 1995), [Rosen-Bronson, 1991). All cells lines were maintained in DMEM supplemented with 10% fetal calf serum, 50 U/ml penicillin G, 50 μg/ml streptomycin, 1 mM sodium pyruvate, 2 mM glutamine, and 10 mM HEPES buffer (all Gibco/BRL, Gaithersburg, Md.). TCR- and HLA-transfectants were expanded using 1 mg/ml G418 (Gibco/BRL), or 1 mg/ml G418 and 1 mg/ml hygromycin (Calbiochem, San Diego, Calif.), respectively. Cells were washed and resuspended in DMEM complete medium without antibodies. 10^5 cells of the TCR-transfected or untransfected (control) BW58α-β- cells and an equal number of DR-transfected or untransfected (control) Dap.3 cells were incubated with MBP 152-165, or MBP 83-97 and various concentrations of compound, using an U-bottom 96 well plate (Costar). Cell culture supernatants were harvested after […] and stored at -70° C. until use. IL-2 cytokine concentrations (pg/ml) of supernatants were measured by ELISA (Genzyme, Cambridge, Mass.) according to the manufacturer's instructions. The activity of compounds identified by MCDOCK in functional assays that measure inhibition of IL-2 secretion by DR1301 and DR1501-restricted TCR transfectants using compound #105 and several other compounds was evaluated. The results obtained with compound #105 are contained in FIG. 3. In the figure t1 and t2 represent dose-response curves generated in two different experiments. TCR and DR transfectants were incubated for 36 hours with or without compound and the appropriate MBP peptide. IL-2 concentration of the supernatants was then analyzed by ELISA.

HLA-DR1501 = biological target: T2, HLA-DR1501 (Homo sapiens, UniProt P01903+P01911); assay: IL-2 secretion functional blocking assay, DR1501-restricted TCR transfectants with MBP 83-97; type: cell-based; details: DR1501 and TCR transfectants, MBP peptide, IL-2 in supernatant by ELISA
T2 construct: expressed in transfected cells; host or cells: DAP.3 murine fibroblasts (gift of C. Hurley and R. Rosen-Bronson)
Excerpt: The murine T-cell hybridoma cell line BW58α-β- (a gift of B. Malissen and W. Born) was used for transfection of human TCRα and β cDNA isolated from patients with multiple sclerosis (Hastings, 1996). The parental DAP.3 murine fibroblast cell line was used for transfection of DR(α,β1*1301) or DR((α,β*1501) as previously described (a gift of C. Hurley and R. Rosen-Bronson)) ([Hurley, 1995), [Posch, 1995), [Rosen-Bronson, 1991). All cells lines were maintained in DMEM supplemented with 10% fetal calf serum, 50 U/ml penicillin G, 50 μg/ml streptomycin, 1 mM sodium pyruvate, 2 mM glutamine, and 10 mM HEPES buffer (all Gibco/BRL, Gaithersburg, Md.). TCR- and HLA-transfectants were expanded using 1 mg/ml G418 (Gibco/BRL), or 1 mg/ml G418 and 1 mg/ml hygromycin (Calbiochem, San Diego, Calif.), respectively.
Cells were washed and resuspended in DMEM complete medium without antibodies. […] IL-2 cytokine concentrations (pg/ml) of supernatants were measured by ELISA (Genzyme, Cambridge, Mass.) according to the manufacturer's instructions.
The activity of compounds identified by MCDOCK in functional assays that measure inhibition of IL-2 secretion by DR1301 and DR1501-restricted TCR transfectants using compound #105 and several other compounds was evaluated. […] IL-2 concentration of the supernatants was then analyzed by ELISA.

HLA-DR1301 [2] = biological target: T1, HLA-DR1301; assay: Competitive peptide-binding assay with biotinylated MBP peptide; details: analog at 6.25 μM to 400 μM, OD at 450 nm
Experimental: 1.5×10^6 HLA-DR-transfected Dap.3 cells were washed in Hanks' Balanced Salt Solution, fixed with 1% paraformaldehyde, washed with RPMI medium and PBS, and resuspended in binding buffer. Biotinylated MBP peptide was added at 200 μg/ml (for MBP 152-165) or 1 μg/ml (for MBP 83-97). BSA was added at 1%. The blocking compound (analogue 6) was added at multiple concentrations ranging from 6.25 μM to 400 μM and incubated overnight in a shaking water bath at 37° C. The samples were then washed and lysed with 100 μl lysis buffer containing 1% nonidet-P40 on ice for 40 min. After centrifugation, the supernatant containing the cell membrane fragments was […] to a 96-well plate pre-coated with the L243 monoclonal antibody that binds to all HLA-DR molecules. The lysis buffer was neutralized with 100 μl n-octyl-β-D-glucopyranoside overnight at 4° C. The samples were then washed and incubated with streptavidin-peroxidase for 1 hour at room temperature. […] OD was measured by an ELISA reader at 450 nm. Competition of the compound for the MBP peptide was calculated according to the following formula: [formula]
This assay evaluates the binding of biotinylated MBP peptide to HLA-DR1301 in the presence of different concentrations of the analog (analog 6 of lead compound). The amounts of MBP peptide bound (label) to the HLA molecule are then quantitated based on the amount of biotin detected.

| SMILES | inhibition of IL-2 secretion / blocking of antigen presentation by DR-1301 (HLA-DR1301 [1]) | specificity for DR-1301 as compared with DR-1501, by inhibitory effect on IL-2 secretion (HLA-DR1301 [1]) | inhibition of IL-2 secretion / blocking of antigen presentation by DR-1301 (HLA-DR1301 [1]; listed as lead compound #105) | reversal of inhibition of IL-2 production by increasing MBP 152-165 peptide concentration (HLA-DR1301 [1]; MBP 0 to 1200 micrograms/ml, DR1301-restricted TCR transfectants) | inhibition of IL-2 secretion / blocking of antigen presentation by DR-1501 (HLA-DR1501) | specificity for DR-1301 as compared with DR-1501, by inhibitory effect on IL-2 secretion (HLA-DR1301 [1]; listed as #6) | competition with biotinylated MBP peptide for binding to DR1301 (HLA-DR1301 [2]) |
| --- | --- | --- | --- | --- | --- | --- | --- |
| COc1ccc(NS(=O)(=O)c2ccc3ncn(NS(=O)(=O)c4ccc(I)cc4)c(=O)c3c2)cc1 [analog #14, 3-{[(4-iodophenyl)sulfonyl]amino}-6-{[(4-methoxyphenyl)amino]sulfonyl}-3-hydroquinazolin-4-one] | inactive | – | – | – | – | – | – |
| CC(=O)Nc1ccc(NCC(=O)Nn2cnc3ccc(S(=O)(=O)Nc4ccc(NC(C)=O)cc4)cc3c2=O)cc1 [compound #105, 2-{[4-(acetylamino)phenyl]amino}-N-[6-({[4-(acetylamino)phenyl]amino}sulfonyl)-4-oxo(3-hydroquinazolin-3-yl)]acetamide] | strong inhibition | most effective in discriminating | significant effect | best dose-response curves | weaker inhibition | – | – |
| O=C(CNc1ccc(Cl)cc1Cl)NC1C=Cc2ccc(S(=O)(=O)Nc3ccc(Cl)cc3Cl)cc2C1=O (stereo not drawn) [analog #6, 2-[(2,4-dichlorophenyl)amino]-N-(7-{[(2,4-dichlorophenyl)amino]sulfonyl}-1-oxo(2-2-hydronaphthyl))acetamide] | – | greater degree of specificity for DR-1301 as compared with DR-1501 | – | – | – | greater specificity for DR1301 than #105 | specific binding of the compound to HLA-DR1301; also recorded: specifically competes with MBP peptide for binding to purified DR1301 molecules |
